The results in this text go back to patent US10077261B2, “Imidazolin-5-one derivative useful as FASN inhibitors for the treatment of cancer” (Janssen Pharmaceutica NV, priority 2012, dated 2018).

Experiment [1] concerns the target Fatty Acid Synthase Keto-reductase Domain (FASN KR) (Homo sapiens, UniProt P49327). Nature of the experiment: Fatty Acid Synthase keto-reductase domain (FASN KR) inhibition, NADPH oxidation at 340 nm.
Experimental: After 20 minutes incubation at room temperature the plate was measured again (T2).
The decrease in absorbance was calculated as (Absorbance before incubation T1)−(Absorbance following incubation T2).
A plot of Controlmin versus test compound concentration was fitted to a 4-parameter logistic curve using a non-linear least squares regression method.
In experiment [2] the test system is PC-3M-Luc-C6 prostate cells. Nature of the experiment: In vitro PC-3M-Luc-C6 prostate cell proliferation assay in lipid reduced medium. In kind it is cell-based. As to conditions: 96 h, read-out: pIC50 PC-3M-Luc-C6 prostate cell (converted).
Experiment [3] deals with LNCaP-Vancouver prostate cells. Nature of the experiment: In vitro LNCaP Vancouver prostate cell proliferation assay in lipid reduced medium. The format is cell-based. As to conditions: read-out: pIC50 LNCaP_Vancouver prostate cell (converted).
For experiment [4], the target named is T1, hFASN enzyme (full length) (Homo sapiens, UniProt P49327).
T1 construct: 10 μL hFASN enzyme (full length, 300 ng, purified in house); made in house
T1 sequence (P49327 whole entry): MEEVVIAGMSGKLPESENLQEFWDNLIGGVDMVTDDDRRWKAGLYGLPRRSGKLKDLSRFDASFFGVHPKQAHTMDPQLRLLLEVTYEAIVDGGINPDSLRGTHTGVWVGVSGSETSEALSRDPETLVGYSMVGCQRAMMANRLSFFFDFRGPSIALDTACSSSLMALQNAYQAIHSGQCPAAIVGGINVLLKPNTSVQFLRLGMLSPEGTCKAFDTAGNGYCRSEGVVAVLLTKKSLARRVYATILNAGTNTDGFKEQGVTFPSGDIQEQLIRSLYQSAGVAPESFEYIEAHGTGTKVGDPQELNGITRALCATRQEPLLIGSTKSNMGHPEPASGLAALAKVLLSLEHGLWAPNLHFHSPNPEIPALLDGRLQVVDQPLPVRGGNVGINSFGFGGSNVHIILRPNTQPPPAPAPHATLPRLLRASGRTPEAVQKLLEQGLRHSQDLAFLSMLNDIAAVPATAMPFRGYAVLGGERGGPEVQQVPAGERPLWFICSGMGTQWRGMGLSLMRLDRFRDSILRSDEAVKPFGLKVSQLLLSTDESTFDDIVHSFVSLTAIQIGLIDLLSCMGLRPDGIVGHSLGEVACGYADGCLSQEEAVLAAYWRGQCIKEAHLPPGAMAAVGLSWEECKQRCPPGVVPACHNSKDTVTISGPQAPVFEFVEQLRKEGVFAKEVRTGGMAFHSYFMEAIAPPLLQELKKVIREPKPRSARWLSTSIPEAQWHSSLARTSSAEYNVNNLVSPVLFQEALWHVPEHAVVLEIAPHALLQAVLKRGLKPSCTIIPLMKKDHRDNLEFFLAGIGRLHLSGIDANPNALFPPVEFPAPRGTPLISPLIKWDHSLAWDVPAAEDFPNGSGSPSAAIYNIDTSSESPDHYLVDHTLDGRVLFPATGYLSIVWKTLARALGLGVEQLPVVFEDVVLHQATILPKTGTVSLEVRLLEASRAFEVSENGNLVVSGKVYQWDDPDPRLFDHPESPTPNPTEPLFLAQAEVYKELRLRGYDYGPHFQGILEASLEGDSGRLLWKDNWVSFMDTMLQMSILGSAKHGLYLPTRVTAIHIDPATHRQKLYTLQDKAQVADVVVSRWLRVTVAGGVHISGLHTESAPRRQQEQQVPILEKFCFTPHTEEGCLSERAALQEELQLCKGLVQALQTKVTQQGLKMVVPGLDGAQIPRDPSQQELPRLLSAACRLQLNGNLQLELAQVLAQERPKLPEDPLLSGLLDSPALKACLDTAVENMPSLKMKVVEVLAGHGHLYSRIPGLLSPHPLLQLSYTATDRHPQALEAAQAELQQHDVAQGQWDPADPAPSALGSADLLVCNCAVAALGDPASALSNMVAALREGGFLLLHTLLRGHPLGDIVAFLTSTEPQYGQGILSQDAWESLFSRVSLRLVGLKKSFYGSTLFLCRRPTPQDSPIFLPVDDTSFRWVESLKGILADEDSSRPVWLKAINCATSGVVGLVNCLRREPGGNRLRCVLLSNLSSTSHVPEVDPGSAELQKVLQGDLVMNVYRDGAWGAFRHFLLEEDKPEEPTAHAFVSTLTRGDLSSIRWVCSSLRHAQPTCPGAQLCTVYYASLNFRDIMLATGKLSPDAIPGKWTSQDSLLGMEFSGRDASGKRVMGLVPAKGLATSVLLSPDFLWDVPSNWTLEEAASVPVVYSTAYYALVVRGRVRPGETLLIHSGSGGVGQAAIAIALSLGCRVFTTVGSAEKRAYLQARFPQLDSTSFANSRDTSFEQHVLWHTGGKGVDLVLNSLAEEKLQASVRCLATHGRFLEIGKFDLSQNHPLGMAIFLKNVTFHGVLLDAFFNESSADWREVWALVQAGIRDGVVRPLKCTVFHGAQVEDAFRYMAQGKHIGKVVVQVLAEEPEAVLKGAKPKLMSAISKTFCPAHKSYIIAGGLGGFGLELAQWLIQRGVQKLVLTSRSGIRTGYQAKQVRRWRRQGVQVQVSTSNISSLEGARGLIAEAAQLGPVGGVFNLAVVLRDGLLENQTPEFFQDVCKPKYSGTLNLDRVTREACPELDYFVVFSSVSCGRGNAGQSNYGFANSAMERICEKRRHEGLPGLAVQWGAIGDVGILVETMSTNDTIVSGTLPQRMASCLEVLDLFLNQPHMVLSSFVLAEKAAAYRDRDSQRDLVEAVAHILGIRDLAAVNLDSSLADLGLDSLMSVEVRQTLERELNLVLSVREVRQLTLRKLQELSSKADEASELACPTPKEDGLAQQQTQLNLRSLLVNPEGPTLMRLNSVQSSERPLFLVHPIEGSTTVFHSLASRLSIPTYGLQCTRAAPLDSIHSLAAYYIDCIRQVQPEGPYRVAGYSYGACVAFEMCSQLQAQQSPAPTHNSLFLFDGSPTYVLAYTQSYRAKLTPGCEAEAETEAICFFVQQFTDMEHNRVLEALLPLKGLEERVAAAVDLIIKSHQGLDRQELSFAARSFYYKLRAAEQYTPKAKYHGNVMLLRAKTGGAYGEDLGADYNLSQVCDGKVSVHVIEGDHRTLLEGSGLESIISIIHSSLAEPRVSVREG
Nature of the experiment: Fatty Acid Synthase (FASN) inhibition scintillation proximity assay. As to conditions: for inhibition at 10 µM: read-out: Human FASN % inhibition @ 10 μM, 10 μM test compound; for IC50: read-out: Human FASN pIC50 (converted). In kind it is biochemical. An outline of the steps:
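Scintillation proximity format: in-house full-length enzyme, 300 ng per well, pH 7.5 phosphate/DTT buffer, ³H-acetyl-CoA and malonyl-CoA. Emission counted on LEADseeker at 610 nm at least 24 h after stopping.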

Experiment [5] relates to A2780 ovarian cells. Nature of the experiment: A2780 ovarian cell proliferation assay in lipid reduced medium, without palmitate (MTT). In kind it is cell-based. To be noted: Homo sapiens, A2780, 96 h; read-out: pIC50 A2780 Ovarian Cell, Without Palmitate (converted).
The subject of experiment [6] is A2780 ovarian cells. Nature of the experiment: A2780 ovarian cell proliferation assay in lipid reduced medium, with palmitate (MTT). As to conditions: Homo sapiens, A2780, 96 h; read-out: pIC50 A2780 Ovarian Cell, With Palmitate (converted). In kind it is cell-based. A digest of the protocol: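 In this palmitate-supplemented format, compound dilutions (30 μM down to 0.01 μM) are added to cells in lipid-reduced serum with 25 μM palmitate, 0.2% fatty-acid-free BSA and 0.25% ethanol. After four days (96 h) MTT absorbance at 544 nm is recorded and fitted by minimum sum of squares.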

Fatty Acid Synthase Keto-reductase Domain (FASN KR), sequence (P49327 whole entry, the tested form may be a part): as the sequence (P49327 whole entry) above

`O=C(C1CC1)N1CC[C@@H](CN2C(=O)C3(CC3)N=C2c2ccc(-c3cnc4ccccc4c3)cc2F)C1` [compound 257, (R)-6-((1-(cyclopropanecarbonyl)pyrrolidin-3-yl)methyl)-5-(2-fluoro-4-(quinolin-3-yl)phenyl)-4,6-diazaspiro[2.4]hept-4-en-7-one]: the IC50 in experiment [1] was 200 nM; in experiment [2], 70.8 nM; in experiment [3] it was 263 nM; in experiment [4], 49 nM. In addition, in experiment [4], the inhibition at 10 µM came to 99%.

In the case of `O=C(C1CC1)N1CC[C@@H](CN2C(=O)C3(CC3)N=C2c2ccc(-c3ccc4cncnc4c3)cc2)C1` [compound 312, (R)-6-((1-(cyclopropanecarbonyl)pyrrolidin-3-yl)methyl)-5-(4-(quinazolin-7-yl)phenyl)-4,6-diazaspiro[2.4]hept-4-en-7-one], the IC50 in experiment [1] was 75.9 nM; in experiment [2] it was approximately 52.5 nM; in experiment [3] it was 123 nM; in experiment [4] it was 75.9 nM. Moreover, the inhibition at 10 µM in experiment [4] is 101%.

With `O=C(C1CC1)N1CC(CN2C(=O)C3(CC3)N=C2c2ccc(-c3ccc4cccnc4c3F)cc2)C1` [compound 315, 6-((1-(cyclopropanecarbonyl)azetidin-3-yl)methyl)-5-(4-(8-fluoroquinolin-7-yl)phenyl)-4,6-diazaspiro[2.4]hept-4-en-7-one], the IC50 was 251 nM in experiment [1], 123 nM in experiment [2], 631 nM in experiment [3] and 66.1 nM in experiment [4]. For the same compound, the inhibition at 10 µM in experiment [4] was 98%.

Consider `Cn1ccc2cc(-c3ccc(C4=NC5(CC5)C(=O)N4CC4CN(C(=O)C5CC5)C4)cc3)ccc21` [compound 344, 6-((1-(cyclopropanecarbonyl)azetidin-3-yl)methyl)-5-(4-(1-methyl-1H-indol-5-yl)phenyl)-4,6-diazaspiro[2.4]hept-4-en-7-one], for which the IC50 in experiment [1] was 45.7 nM; in experiment [2], approximately 32.4 nM; in experiment [3], 141 nM; in experiment [4] it was 25.7 nM. The inhibition at 10 µM in experiment [4] was determined as 99%.

Consider `Cc1cc(-c2ccc3c(cnn3C)c2)ccc1C1=NC2(CC2)C(=O)N1CC1CN(C(=O)CC2CC2)C1` [compound 499, 6-{[1-(Cyclopropylacetyl)azetidin-3-yl]methyl}-5-[2-methyl-4-(1-methyl-1H-indazol-5-yl)phenyl]-4,6-diazaspiro[2.4]hept-4-en-7-one], for which the IC50 was 479 nM in experiment [1], 457 nM in experiment [2], 4270 nM in experiment [3] and 245 nM in experiment [4]. Further, the inhibition at 10 µM in experiment [4] turned out to be 96%.

With `O=C(C1CC1)N1CC(CN2C(=O)C3(CC3)N=C2c2ccc(-c3ccc4cnc(F)cc4c3)cc2)C1` [compound 502, 6-{[1-(Cyclopropylcarbonyl)azetidin-3-yl]methyl}-5-[4-(3-fluoroisoquinolin-6-yl)phenyl]-4,6-diazaspiro[2.4]hept-4-en-7-one], the IC50 in experiment [1] is 2140 nM; in experiment [2] it was 1170 nM; in experiment [3], 4170 nM; in experiment [4], 355 nM. For the same compound, in experiment [4], the inhibition at 10 µM worked out at 94%.

In the case of `Cn1cc2cc(-c3ccc(C4=NC5(CC5)C(=O)N4CC4CN(C(=O)C5CC5)C4)cc3)ccc2n1` [compound 507, 6-{[1-(Cyclopropylcarbonyl)azetidin-3-yl]methyl}-5-[4-(2-methyl-2H-indazol-5-yl)phenyl]-4,6-diazaspiro[2.4]hept-4-en-7-one], the IC50 in experiment [1] was 3630 nM; in experiment [2], approximately 1170 nM; in experiment [3], 6030 nM; in experiment [4], 417 nM. Moreover, the inhibition at 10 µM in experiment [4] is 89%.

For the compound `O=C(C1CC1)N1CC(CN2C(=O)C3(CC3)N=C2c2ccc(-c3ccc4cccnc4n3)cc2)C1` [compound 511, 6-{[1-(Cyclopropylcarbonyl)azetidin-3-yl]methyl}-5-[4-(1,8-naphthyridin-2-yl)phenyl]-4,6-diazaspiro[2.4]hept-4-en-7-one], the IC50 in experiment [1] was 3160 nM; in experiment [2] it was approximately 891 nM; in experiment [3], 4680 nM; in experiment [4], 355 nM. Also, the inhibition at 10 µM in experiment [4] stood at 94%.

Regarding `Cn1ncc2c(-c3ccc(C4=NC5(CC5)C(=O)N4CC4CN(C(=O)C5CC5)C4)cc3)cccc21` [compound 515, 6-{[1-(Cyclopropylcarbonyl)azetidin-3-yl]methyl}-5-[4-(1-methyl-1H-indazol-4-yl)phenyl]-4,6-diazaspiro[2.4]hept-4-en-7-one], the IC50 was 437 nM in experiment [1], 562 nM in experiment [2], 2140 nM in experiment [3] and 182 nM in experiment [4]. The inhibition at 10 µM in experiment [4] worked out at 96%.

Take `Cc1cc(-c2cccc3c2cnn3C)ccc1C1=NC2(CC2)C(=O)N1CC1CN(C(=O)C2(C)CC2)C1` [compound 599, 6-({1-[(1-Methylcyclopropyl)carbonyl]azetidin-3-yl}methyl)-5-[2-methyl-4-(1-methyl-1H-indazol-4-yl)phenyl]-4,6-diazaspiro[2.4]hept-4-en-7-one]: the IC50 was 105 nM in experiment [2], 912 nM in experiment [3], 145 nM in the experiment on A2780 ovarian cells [5] and 5500 nM with A2780 ovarian cells [6]. Moreover, in experiment [4], the inhibition at 10 µM came to 102%.

Take `Cc1cc(-c2ccc3c(c2)ncn3C)ccc1C1=NC2(CC2)C(=O)N1CC1CN(C(=O)C2(O)CC2)C1` [compound 628, 6-({1-[(1-Hydroxycyclopropyl)carbonyl]azetidin-3-yl}methyl)-5-[2-methyl-4-(1-methyl-1H-benzimidazol-5-yl)phenyl]-4,6-diazaspiro[2.4]hept-4-en-7-one]: the IC50 was 162 nM in experiment [2], 724 nM in experiment [3], 66.1 nM in the experiment with A2780 ovarian cells [5] and more than 10000 nM in the experiment on A2780 ovarian cells [6]. Further, the inhibition at 10 µM in experiment [4] stood at 100%.

As to `O=C(C1CC1)N1CC[C@@H](CN2C(=O)C3(CC3)N=C2c2ccc(-c3cccc(SC4CC4)c3)cc2F)C1` [compound 641, 6-{[(3R)-1-(Cyclopropylcarbonyl)pyrrolidin-3-yl]methyl}-5-[3′-(cyclopropylsulfanyl)-3-fluorobiphenyl-4-yl]-4,6-diazaspiro[2.4]hept-4-en-7-one], the IC50 in experiment [2] was approximately 562 nM; in experiment [3], 4570 nM; in the experiment on A2780 ovarian cells [5], approximately 2240 nM; in the experiment with A2780 ovarian cells [6] it was more than 10000 nM. Also, the inhibition at 10 µM in experiment [4] worked out at 102%.

As to `O=C(C1CC1)N1CC(CN2C(=O)C3(CC3)N=C2c2ccc(-c3nc4cc(Cl)ccc4s3)cc2F)C1` [compound 643, 5-[4-(5-Chloro-1,3-benzothiazol-2-yl)-2-fluorophenyl]-6-{[1-(cyclopropylcarbonyl)azetidin-3-yl]methyl}-4,6-diazaspiro[2.4]hept-4-en-7-one], the IC50 in experiment [2] is 977 nM; in experiment [3], 3020 nM; with A2780 ovarian cells [5], approximately 676 nM; in experiment [4], 380 nM; with A2780 ovarian cells [6] it was approximately 10000 nM. Moreover, the inhibition at 10 µM in experiment [4] was 96%.

As to `Cc1cc(-c2ccc3cc[nH]c3c2)ccc1C1=NC2(CCCC2)C(=O)N1C[C@@H]1CCN(C(=O)C2CC2)C1` [compound 873, (R)-2-(4-(1H-indol-6-yl)-2-methylphenyl)-3-((1-(cyclopropanecarbonyl)pyrrolidin-3-yl)methyl)-1,3-diazaspiro[4.4]non-1-en-4-one], the IC50 in experiment [2] is 34.7 nM; in experiment [3], 263 nM; with A2780 ovarian cells [5], 63.1 nM; with A2780 ovarian cells [6], more than 10000 nM. Moreover, in experiment [4], the inhibition at 10 µM is 109%.

The inhibition is the relative decrease from the control value, in per cent.
